± gives the expanded uncertainty stated by the source.
Experiments:
[1] = 100 kPa, Liquid; for viscosity: Concentric cylinders viscometry
[2] = refractive index (Na D-line) (dimensionless); settings: 293.15 K; 100 kPa; Liquid; Standard Abbe refractometry
[3] = an = ratio of the nth substance listed; settings: 100 kPa, Liquid; for electrical conductivity: 293.15 K, Alternating current cell with electrodes; for viscosity / mass density: 298.15 K; for viscosity: Concentric cylinders viscometry; for mass density: Vibrating tube method
[4] = refractive index (Na D-line) (dimensionless); wn = mass fraction of the nth substance listed; settings: 293.15 K, 100 kPa, Liquid, Standard Abbe refractometry
[5] = wn = mass fraction of the nth substance listed; settings: 100 kPa, Liquid; for electrical conductivity: 293.15 K, Alternating current cell with electrodes; for viscosity / mass density: 298.15 K; for viscosity: Concentric cylinders viscometry; for mass density: Vibrating tube method
[6] = refractive index (Na D-line) (dimensionless); an = ratio of the nth substance listed; settings: 293.15 K, 100 kPa, Liquid, Standard Abbe refractometry

NCCO [2-aminoethan-1-ol]
electrical conductivity ([1]; 293.15 K, Alternating current cell with electrodes): 0.0031 ± 0.0003 S/m
viscosity ([1]; 298.15 K): 18.75 ± 2.8 mPa·s
mass density ([1]; 298.15 K, Vibrating tube method): 1012 ± 1 kg/m3
refractive index [2]: 1.456 ± 0.002

O [water]
viscosity ([1]; 298.15 K): 0.89 ± 0.13 mPa·s
refractive index [2]: 1.333 ± 0.002

NCCO [2-aminoethan-1-ol] + O
electrical conductivity ([3]; a2 = 1.5): 0.046 ± 0.005 S/m
electrical conductivity ([3]; a2 = 2.333): 0.072 ± 0.007 S/m
electrical conductivity ([3]; a2 = 4): 0.102 ± 0.01 S/m
viscosity ([3]; a2 = 1.5): 3.5 ± 0.53 mPa·s
viscosity ([3]; a2 = 2.333): 2.6 ± 0.39 mPa·s
viscosity ([3]; a2 = 4): 1.7 ± 0.26 mPa·s
mass density ([3]; a2 = 1.5): 1018.3 ± 1 kg/m3
mass density ([3]; a2 = 2.333): 1012.9 ± 1 kg/m3
mass density ([3]; a2 = 4): 1007.1 ± 1 kg/m3
refractive index ([4]; w1 = 0.2): 1.3587 ± 0.0033
refractive index ([4]; w1 = 0.3): 1.3718 ± 0.0033
refractive index ([4]; w1 = 0.4): 1.3852 ± 0.0033
refractive index ([4]; w1 = 0.5): 1.3975 ± 0.0034
refractive index ([4]; w1 = 0.6): 1.4126 ± 0.0033
refractive index ([4]; w1 = 0.7): 1.423 ± 0.0032
refractive index ([4]; w1 = 0.8): 1.4368 ± 0.0029
refractive index ([4]; w1 = 0.9): 1.4444 ± 0.0028
refractive index ([4]; w1 = 1): 1.456 ± 0.002
electrical conductivity ([5]; w1 = 0.2): 0.102 ± 0.012 S/m
electrical conductivity ([5]; w1 = 0.3): 0.072 ± 0.0091 S/m
electrical conductivity ([5]; w1 = 0.4): 0.0461 ± 0.0063 S/m
electrical conductivity ([5]; w1 = 0.5): 0.029 ± 0.0045 S/m
electrical conductivity ([5]; w1 = 0.6): 0.0111 ± 0.0023 S/m
electrical conductivity ([5]; w1 = 0.7): 0.0089 ± 0.0012 S/m
electrical conductivity ([5]; w1 = 0.8): 0.0034 ± 0.0007 S/m
electrical conductivity ([5]; w1 = 0.9): 0.0032 ± 0.0003 S/m
electrical conductivity ([5]; w1 = 1): 0.0031 ± 0.0003 S/m
viscosity ([5]; w1 = 0.2): 1.7 ± 0.28 mPa·s
viscosity ([5]; w1 = 0.3): 2.6 ± 0.43 mPa·s
viscosity ([5]; w1 = 0.4): 3.5 ± 0.6 mPa·s
viscosity ([5]; w1 = 0.5): 5.4 ± 1 mPa·s
viscosity ([5]; w1 = 0.6): 9.67 ± 1.6 mPa·s
viscosity ([5]; w1 = 0.7): 12.26 ± 2.1 mPa·s
viscosity ([5]; w1 = 0.8): 20.39 ± 3.1 mPa·s
viscosity ([5]; w1 = 0.9): 19.45 ± 2.9 mPa·s
viscosity ([5]; w1 = 1): 18.75 ± 2.8 mPa·s
mass density ([5]; w1 = 0.2): 1007.1 ± 1.5 kg/m3
mass density ([5]; w1 = 0.3): 1012.9 ± 1.5 kg/m3
mass density ([5]; w1 = 0.4): 1018.3 ± 1.4 kg/m3
mass density ([5]; w1 = 0.5): 1022.1 ± 1.2 kg/m3
mass density ([5]; w1 = 0.6): 1025.1 ± 1.1 kg/m3
mass density ([5]; w1 = 0.7): 1026.5 ± 1 kg/m3
mass density ([5]; w1 = 0.8): 1024.7 ± 1.2 kg/m3
mass density ([5]; w1 = 0.9): 1020.4 ± 1.6 kg/m3
mass density ([5]; w1 = 1): 1012 ± 1 kg/m3
refractive index ([6]; a2 = 1.5): 1.3854 ± 0.002
refractive index ([6]; a2 = 2.333): 1.372 ± 0.002
refractive index ([6]; a2 = 4): 1.3587 ± 0.002

O [water] + NCCO
refractive index ([4]; w2 = 0): 1.333 ± 0.002
viscosity ([5]; w2 = 0): 0.89 ± 0.13 mPa·s
